The assay addresses T1, recombinant human GST-SYK (Homo sapiens, UniProt P43405).
T1 construct: purchased Carna Biosciences 08-176
Put plainly: Homogeneous Time-Resolved Fluorescence (HTRF) assay for the recombinant human Syk enzyme. It is filed as biochemical. To be noted: HTRF assay, recombinant human GST-SYK; IC50 given as class symbols; read-out: rhSYK Activity. In short, it runs like this: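 Phosphorylation of a biotinylated Syk substrate peptide (250 nM) was run for 45 min at room temperature with 25 μM ATP and 5 mM Mg. It followed a 10-min preincubation of GST-hSYK ([…]) with compound in 15 mM Tris-HCl pH 7.5, 2 mM DTT. Product was detected by time-resolved fluorescence using a europium anti-phosphotyrosine antibody plus SA-APC in EDTA-containing quench buffer.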
As to `Cc1cc(Nc2nccc(C(F)(F)F)n2)cc(-c2cncc(NCC3CC3)c2)c1` [Example 15.11], the IC50 was less than 100 nM.
As for `Cc1cc(Nc2nccc(C(F)(F)F)n2)cc(-c2ccnc(N3CC(O)C3)c2)c1` [Example 15.53, 1-[4-(3-methyl-5-{[4-(trifluoromethyl)pyrimidin-2-yl]amino}phenyl)pyridin-2-yl] azetidin-3-ol], the figure is less than 100 nM; as for `Cc1cc(Nc2nccc(C(F)(F)F)n2)cc(-c2ccc(NC(C)(C)c3nnn[nH]3)nc2)c1` [Example 18.8, N-[3-methyl-5-(6-{[1-methyl-1-(1H-tetrazol-5-yl)ethyl]amino}pyridin-3-yl)phenyl]-4-(trifluoromethyl)pyrimidin-2-amine], less than 100 nM; as for `Cc1cc(Nc2nccc(C(F)(F)F)n2)cc(-c2ccc(C(=O)N3C[C@H]4C[C@@H]3CO4)nc2)c1` [Example 16.40, N-(3-methyl-5-{6-[(1R,4R)-2-oxa-5-azabicyclo[2.2.1]hept-5-ylcarbonyl]pyridin-3-yl}phenyl)-4-(trifluoromethyl)pyrimidin-2-amine], less than 100 nM.
The same measure for `Cc1cc(Nc2nccc(C(F)(F)F)n2)cc(-c2ccc(N3CCC(C(=O)O)CC3)nc2)c1` [Example 7.136, 1-[5-(3-methyl-5-{[4-(trifluoromethyl)pyrimidin-2-yl]amino}phenyl)pyridin-2-yl]piperidine-4-carboxylic acid]: less than 100 nM; for `Cc1cc(Nc2nccc(C(F)(F)F)n2)cc(-c2ccc(NC(CO)C(=O)O)nc2)c1` (centres unmarked) [Example 7.69, N-[5-(3-methyl-5-{[4-(trifluoromethyl)pyrimidin-2-yl]amino}phenyl)pyridin-2-yl]serine]: less than 100 nM.
The same measure for `Cc1cc(Nc2nccc(C)n2)cc(-c2cncc(C(O)(CO)CO)c2)c1` [Example 9.75, 2-(5-{3-methyl-5-[(4-methylpyrimidin-2-yl)amino]phenyl}pyridin-3-yl)propane-1,2,3-triol]: 100 to 1000 nM; for `Cc1cc(Nc2nccc(C3CC3)n2)cc(-c2ccc(C(C)(O)[C@H]3CC[C@H](C(=O)O)CC3)nc2)c1` (single isomer, unassigned) [Example 9.18, trans-4-[(1R or 1S)-1-(5-{3-[(4-cyclopropylpyrimidin-2-yl)amino]-5-methylphenyl}pyridin-2-yl)-1-hydroxyethyl]cyclohexanecarboxylic acid]: less than 100 nM.
On to `Cc1cc(Nc2nccc(C(F)(F)F)n2)cc(-c2ccc(N[C@H](C(=O)O)C(C)(C)C)nc2)c1` [Example 7.106, 3-methyl-N-[5-(3-methyl-5-{[4-(trifluoromethyl)pyrimidin-2-yl]amino}phenyl)pyridin-2-yl]-L-valine], for which the IC50 was less than 100 nM.
Regarding `COCC1CCN(c2cc(-c3cc(C)cc(Nc4nccc(C(F)(F)F)n4)c3)ccn2)C1` (centres unmarked) [Example 15.77, N-(3-{2-[3-(methoxymethyl)pyrrolidin-1-yl]pyridin-4-yl}-5-methylphenyl)-4-(trifluoromethyl)pyrimidin-2-amine], the IC50 lay in the range of 100 to 1000 nM.
The same measure for `Cc1cc(Nc2nccc(C(F)(F)F)n2)cc(-c2ccnc(C(C)(O)CO)c2)c1` (centres unmarked) [Example 9.64, 2-[4-(3-methyl-5-{[4-(trifluoromethyl)pyrimidin-2-yl]amino}phenyl)pyridine-2-yl]propane-1,2-diol]: less than 100 nM; for `Cc1cc(Nc2nccc(C)n2)cc(-c2ccc(CCC(=O)O)nc2)c1` [Example 2.89, 3-(5-{3-methyl-5-[(4-methylpyrimidin-2-yl)amino]phenyl}pyridin-2-yl)propanoic acid]: less than 100 nM; for `CCOC(=O)C1CCCC(O)(c2cncc(-c3cc(C)cc(Nc4nccc(C(F)(F)F)n4)c3)c2)C1` (centres unmarked) [Example 9.77, ethyl 3-hydroxy-3-[5-(3-methyl-5-{[4-(trifluoromethyl)pyrimidin-2-yl]amino}phenyl)pyridin-3-yl]cyclohexanecarboxylate]: 100 to 1000 nM.
The same measure for `Cc1cc(Nc2nccc(C(F)(F)F)n2)cc(-c2ccc(N3CC[C@H]3C(=O)O)nc2)c1` [Example 7.6, (2S)-1-[5-(3-methyl-5-{[4-(trifluoromethyl)pyrimidin-2-yl]amino}phenyl)pyridin-2-yl]azetidine-2-carboxylic acid]: less than 100 nM.
As for `Cc1cc(Nc2nccc(C(F)(F)F)n2)cc(-c2ccc(C(=O)N3CCn4ccnc4C3)nc2)c1` [Example 16.32, N-{3-[6-(5,6-dihydroimidazo[1,2-a]pyrazin-7(8H)-ylcarbonyl)pyridin-3-yl]-5-methylphenyl}-4-(trifluoromethyl)pyrimidin-2-amine], the figure is less than 100 nM; as for `CCOC(=O)C1CCC(O)(c2ccc(-c3cc(C)cc(Nc4nccc(C)n4)c3)cn2)CC1(C)C` (centres unmarked) [Example 9.40, ethyl 4-hydroxy-2,2-dimethyl-4-(5-{3-methyl-5-[(4-methylpyrimidin-2-yl)amino]phenyl}pyridin-2-yl)cyclohexanecarboxylate], 100 to 1000 nM; as for `Cn1cc(-c2cccc(Nc3nccc(C(F)(F)F)n3)c2)ccc1=O` [Example 5.1, 1-Methyl-5-(3-{[4-(trifluoromethyl)pyrimidin-2-yl]amino}phenyl)pyridin-2(1H)-one], 100 to 1000 nM.
For `O=C(O)[C@@H]1CCN1c1ccc(-c2cc(F)cc(Nc3nccc(C(F)(F)F)n3)c2)cn1` [Example 7.127, (2S)-1-[5-(3-fluoro-5-{[4-(trifluoromethyl)pyrimidin-2-yl]amino}phenyl)pyridin-2-yl]azetidine-2-carboxylic acid], the IC50 is less than 100 nM.
As for `Cc1cc(Nc2nccc(C(F)(F)F)n2)cc(-c2ccc(C34CCC(C(=O)O3)C(C)(C)C4)nc2)c1` (single isomer, unassigned) [Example 9.10, (1S,4R or 1R,4S) 5,5-dimethyl-1-[5-(3-methyl-5-{[4-(trifluoromethyl)pyrimidin-2-yl]amino}phenyl)pyridin-2-yl]-2-oxabicyclo[2.2.2]octan-3-one], the figure is 100 to 1000 nM; as for `Cc1cc(Nc2nccc(C(F)(F)F)n2)cc(-c2ccc(S(N)(=O)=O)nc2)c1` [Example 21.4, 5-(3-methyl-5-{[4-(trifluoromethyl)pyrimidin-2-yl]amino}phenyl)pyridine-2-sulfonamide], less than 100 nM; as for `Cc1cc(Nc2nccc(C(F)(F)F)n2)cc(-c2ccc(CC(=O)N(C)C)nc2)c1` [Example 3.2, N,N-dimethyl-2-(5-(3-methyl-5-((4-(trifluoromethyl)pyrimidin-2-yl)amino)phenyl)pyridin-2-yl)acetamide], less than 100 nM.
Consider `Cc1cc(Nc2nccc(C(F)(F)F)n2)cc(-c2ccc(NC3CCNC3=O)nc2)c1` (centres unmarked) [Example 7.157, 3-{[5-(3-methyl-5-{[4-(trifluoromethyl)pyrimidin-2-yl]amino}phenyl)pyridin-2-yl]amino}pyrrolidin-2-one], for which the IC50 was less than 100 nM.
The same measure for `COCC(Nc1ccc(-c2cc(C)cc(Nc3nccc(C(F)(F)F)n3)c2)cn1)C(=O)O` (centres unmarked) [Example 7.76, O-methyl-N-[5-(3-methyl-5-{[4-(trifluoromethyl)pyrimidin-2-yl]amino}phenyl)pyridin-2-yl]serine]: less than 100 nM.
Regarding `Cc1cc(Nc2nccc(C(F)(F)F)n2)cc(-c2ccc(N3CSCC3C(=O)O)nc2)c1` (centres unmarked) [Example 7.137, 3-[5-(3-methyl-5-{[4-(trifluoromethyl)pyrimidin-2-yl]amino}phenyl)pyridin-2-yl]-1,3-thiazolidine-4-carboxylic acid], the IC50 was less than 100 nM.
As for `CNC(=O)CN(C)C(=O)c1ccc(-c2cc(C)cc(Nc3nccc(C(F)(F)F)n3)c2)cn1` [Example 16.61, N-methyl-N-[2-(methylamino)-2-oxoethyl]-5-(3-methyl-5-{[4-(trifluoromethyl)pyrimidin-2-yl]amino}phenyl)pyridine-2-carboxamide], the IC50 was less than 100 nM.
As for `Cc1cc(Nc2nccc(C(F)(F)F)n2)cc(-c2ccc(NCC(=O)NCC(N)=O)nc2)c1` [Example 12.7, N-[5-(3-methyl-5-{[4-(trifluoromethyl)pyrimidin-2-yl]amino}phenyl)pyridin-2-yl]glycylglycinamide], the figure is less than 100 nM; as for `Cc1cc(Nc2nccc(C(F)(F)F)n2)cc(-c2ccc(N[C@H](C(=O)O)[C@@H](C)O)nc2)c1` [Example 7.92, N-[5-(3-methyl-5-{[4-(trifluoromethyl)pyrimidin-2-yl]amino}phenyl)pyridin-2-yl]-L-threonine], less than 100 nM.
Consider `Cc1cc(Nc2nccc(C(F)(F)F)n2)cc(-c2cncc(CCC(=O)O)c2)c1` [Example 2.86, 3-[5-(3-methyl-5-{[4-(trifluoromethyl)pyrimidin-2-yl]amino}phenyl)pyridin-3-yl]propanoic acid], for which the IC50 was less than 100 nM.
As for `Cc1cc(Nc2ncc(F)c(C3CC3)n2)cc(-c2ccc(NC3CCNC3=O)nc2)c1` (centres unmarked) [Example 7.158, 3-[(5-{3-[(4-cyclopropyl-5-fluoropyrimidin-2-yl)amino]-5-methylphenyl}pyridin-2-yl)amino]pyrrolidin-2-one], the figure is less than 100 nM; as for `CCCCOC(=O)C1CCC(C(C)(O)c2ccc(-c3cc(C)cc(Nc4ncc(Cl)c(C)n4)c3)cn2)CC1` (single isomer, unassigned) [Example 9.53, butyl trans-4-[(1R or 1S)-1-(5-{3-[(5-chloro-4-methylpyrimidin-2-yl)amino]-5-methylphenyl}pyridin-2-yl)-1-hydroxyethyl]cyclohexanecarboxylate], 100 to 1000 nM; as for `CNC(=O)NCc1ccc(-c2cc(C)cc(Nc3nccc(C(F)(F)F)n3)c2)cn1` [Example 17.3, 1-methyl-3-{[5-(3-methyl-5-{[4-(trifluoromethyl)pyrimidin-2-yl]amino}phenyl)pyridin-2-yl]methyl}urea], less than 100 nM.
The same measure for `Cc1cc(Nc2nccc(C(F)(F)F)n2)cc(-c2ccc(C3(O)CCN(C(N)=O)CC3)nc2)c1` [Example 10.3, 4-hydroxy-4-[5-(3-methyl-5-{[4-(trifluoromethyl)pyrimidin-2-yl]amino}phenyl)pyridin-2-yl]piperidine-1-carboxamide]: less than 100 nM.

Source of the values: patent publication US9376418B2, “Substituted pyridine spleen tyrosine kinase (SYK) inhibitors” (Merck Sharp & Dohme Corp., priority 2012, dated 2016).
